Values of other authors as cited in patent publication US12285521B2, “Pharmaceutical formulation” (Klaria Pharma Holding AB, priority 2016, dated 2025).

How the values were obtained:
[1] = test system: migraine; conditions: subcutaneous administration, 6 mg sumatriptan
[2] = test system: migraine; conditions: to be achieved within 60 minutes after dosing

time of maximum plasma concentration (after intranasal administration): 1 to 1.5 h
mean intranasal bioavailability (intranasal, after a 20 mg dose): 15.8%
mean maximum concentration (intranasal, after a 20 mg dose): 12.9 ng/mL
Compound: CNS(=O)(=O)Cc1ccc2[nH]cc(CCN(C)C)c2c1 [sumatriptan]
people with pain reduced from moderate or severe to none within two hours [1]: ~60%
plasma level for the most reliable migraine-relieving effect [2]: over 9.44 ng/mL
